The target in one assay is human P2Y12 receptor (Homo sapiens, UniProt Q9H244). Description: Human P2Y12 recombinant cell membrane binding assay with 33P 2MeS-ADP. As to conditions: competition against 33P 2MeS-ADP, membranes of CHO cells with recombinant human P2Y12 receptor. In short, it runs like this:
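CHO membranes expressing human P2Y12 (20 μg/ml stock) preincubated 15 min at RT with compound in HEPES pH 7.4 buffer, then 33P 2MeS-ADP (1.61 nM working solution) added for 20 min at RT. Bound label filtered and counted; four-point, five-fold series from 10 μM final, triplicate, four-parameter fit.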

Assay [1] concerns human platelet rich plasma. The assay can be described thus: Inhibition of human platelet aggregation, 96-well assay. The format is cell-based. Put shortly:
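ADP-induced aggregation read as 650 nm absorbance every minute for 20 min at 37 °C, with shaking between reads. PRP (~3×E8 platelets/ml, diluted with PPP, ACD-A blood from healthy volunteers) was exposed to compound for 5 min before adding a 40 μM ADP stock (15 μl into 150 μl).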

Our source for the IC50 values is patent publication US8426420B2, “Heterocyclic pyrazole-carboxamidesas P2Y12 antagonists” (Sanofi, priority 2007, dated 2013).

Sequence of human P2Y12 receptor (Q9H244 whole entry): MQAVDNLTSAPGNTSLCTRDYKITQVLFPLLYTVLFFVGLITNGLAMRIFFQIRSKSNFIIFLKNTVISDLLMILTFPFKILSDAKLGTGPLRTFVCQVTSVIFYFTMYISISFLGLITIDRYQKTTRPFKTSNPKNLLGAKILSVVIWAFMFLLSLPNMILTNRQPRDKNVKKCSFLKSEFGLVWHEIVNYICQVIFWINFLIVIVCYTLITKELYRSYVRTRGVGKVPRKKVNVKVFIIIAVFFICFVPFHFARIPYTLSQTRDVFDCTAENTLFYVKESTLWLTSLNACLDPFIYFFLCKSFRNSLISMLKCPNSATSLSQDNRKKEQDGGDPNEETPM

With `CCOC(=O)N1CCN(C(=O)[C@H](CC(=O)O)NC(=O)c2cc(OCC(=O)N3CCC[C@H]3C(=O)NCC3CC3)n(-c3cccc(F)c3)n2)CC1` [Example 77, 4-((S)-3-Carboxy-2-{[5-[2-((S)-2-cyclopropylmethyl-carbamoyl-pyrrolidin-1-yl)-2-oxo-ethoxy]-1-(3-fluoro-phenyl)-1H-pyrazole-3-carbonyl]-amino}-propionyl)-piperazine-1-carboxylic acid ethyl ester], the IC50 came out at 28 nM at human P2Y12 receptor and 160 nM in assay [1] (ADP-induced aggregation, human platelet rich plasma, 96-well plates, AUC of absorbance over 20 minutes).
Consider `CCOC(=O)N1CCN(C(=O)[C@H](CCC(=O)O)NC(=O)c2cc(OCC(=O)N3CCC[C@H]3C(=O)N3CCCCC3)n(-c3ccccc3)n2)CC1` [Example 18, 4-{(S)-4-Carboxy-2-[(5-{2-oxo-2-[(S)-2-(piperidine-1-carbonyl)-pyrrolidin-1-yl]-ethoxy}-1-phenyl-1H-pyrazole-3-carbonyl)-amino]-butyryl}-piperazine-1-carboxylic acid ethyl ester], for which the IC50 is 146 nM on human P2Y12 receptor and 70 nM in assay [1] (Homo sapiens, Platelet, 20 min).
As for `CCOC(=O)N1CCN(C(=O)[C@H](CCC(=O)O)NC(=O)c2cc(OCC(=O)N3CCC[C@H]3C(=O)NC3CC3(F)F)n(-c3ccccc3)n2)CC1` (stereo partly drawn) [Example 21, 4-{(S)-4-Carboxy-2-[(5-{2-[(S)-2-(2,2-difluoro-cyclopropylcarbamoyl)-pyrrolidin-1-yl]-2-oxo-ethoxy}-1-phenyl-1H-pyrazole-3-carbonyl)-amino]-butyryl}-piperazine-1-carboxylic acid ethyl ester], the IC50 on human P2Y12 receptor came out at 32 nM; in assay [1] (Homo sapiens, Platelet, 20 min), 62 nM.
In the same order, the values of `COc1cccc(N2CCN(C(=O)[C@H](CCC(=O)O)NC(=O)c3cc(OCC(=O)N4CCC[C@H]4C(=O)NC4CCC4)n(-c4ccccc4)n3)CC2)c1` [Example 101, (S)-4-({5-[2-((S)-2-Cyclobutylcarbamoyl-pyrrolidin-1-yl)-2-oxo-ethoxy]-1-phenyl-1H-pyrazole-3-carbonyl}-amino)-5-[4-(3-methoxy-phenyl)-piperazin-1-yl]-5-oxo-pentanoic acid] are 77 nM and 790 nM.
As for `CCOC(=O)N1CCN(C(=O)[C@H](CCNC(=O)C2CC2(F)F)NC(=O)c2cc(OCC(=O)N3CCC[C@H]3C(=O)NC3CCC3)n(-c3ccccc3)n2)CC1` (stereo partly drawn) [Example 187, 4-{(S)-2-({5-[2-((S)-2-Cyclobutylcarbamoyl-pyrrolidin-1-yl)-2-oxo-ethoxy]-1-phenyl-1H-pyrazole-3-carbonyl}-amino)-4-[(2,2-difluoro-cyclopropanecarbonyl)-amino]-butyryl}-piperazine-1-carboxylic acid ethyl ester], the IC50 was determined as 98 nM on human P2Y12 receptor and 440 nM in assay [1] (Homo sapiens, Platelet, 20 min).
In the same order, the values of `O=C(O)CC[C@H](NC(=O)c1cc(OCC(=O)N2CCC[C@H]2C(=O)NCC2CC2)n(-c2ccccc2)n1)C(=O)N1CCN(C(=O)OCc2ccccc2)CC1` [Example 161, 4-[(S)-4-Carboxy-2-({5-[2-((S)-2-(cyclopropylmethyl-carbamoyl)-pyrrolidin-1-yl)-2-oxo-ethoxy]-1-phenyl-1H-pyrazole-3-carbonyl}-amino)-butyryl]-piperazine-1-carboxylic acid benzyl ester] are 33 nM and 240 nM.
For `O=C(O)CC[C@H](NC(=O)c1cc(OCC(=O)N2CCC[C@H]2C(=O)NC2CCC2)n(-c2ccccc2)n1)C(=O)N1CCC(C(=O)c2ccccc2)CC1` [Example 106, (S)-5-(4-Benzoyl-piperidin-1-yl)-4-({5-[2-((S)-2-cyclobutylcarbamoyl-pyrrolidin-1-yl)-2-oxo-ethoxy]-1-phenyl-1H-pyrazole-3-carbonyl}-amino)-5-oxo-pentanoic acid], in that order: 104 nM and 1330 nM.
Turning to `CCOC(=O)C(=O)NCC[C@H](NC(=O)c1cc(OCC(=O)N2CCC[C@H]2C(=O)NC2CCC2)n(-c2ccccc2)n1)C(=O)N1CCN(C(=O)OCC)CC1` [Example 96, 4-[(S)-2-({5-[2-((S)-2-Cyclobutylcarbamoyl-pyrrolidin-1-yl)-2-oxo-ethoxy]-1-phenyl-1H-pyrazole-3-carbonyl}-amino)-4-(ethoxyoxalyl-amino)-butyryl]-piperazine-1-carboxylic acid ethyl ester], the IC50 at human P2Y12 receptor amounted to 108 nM; in assay [1] (Homo sapiens, Platelet, 20 min) it was 670 nM.
`CCOC(=O)N1CCN(C(=O)[C@H](CC(=O)O)NC(=O)c2cc(OCC(=O)N3CCC[C@H]3C(=O)NCC(F)(F)F)n(-c3ccccc3)n2)CC1` [Example 58, 4-{(S)-3-Carboxy-2-[(5-{2-[(S)-2-(2,2,2-trifluoro-ethylcarbamoyl)-pyrrolidin-1-yl]-2-oxo-ethoxy}-1-phenyl-1H-pyrazole-3-carbonyl)-amino]-propionyl}-piperazine-1-carboxylic acid ethyl ester]: the IC50 at human P2Y12 receptor worked out at 96 nM; in assay [1] (Homo sapiens, Platelet, 20 min), 60 nM.
For `O=C(O)CC[C@H](NC(=O)c1cc(OCC(=O)N2CCC[C@H]2C(=O)NC2CCC2)n(-c2ccccc2)n1)C(=O)N1CCN(C(=O)OCc2ccccc2)CC1` [Example 159, 4-[(S)-4-Carboxy-2-({5-[2-((S)-2-cyclobutylcarbamoyl-pyrrolidin-1-yl)-2-oxo-ethoxy]-1-phenyl-1H-pyrazole-3-carbonyl}-amino)-butyryl]-piperazine-1-carboxylic acid benzyl ester], the IC50 turned out to be 15 nM at human P2Y12 receptor and 120 nM in assay [1] (Homo sapiens, Platelet, 20 min).
In the same order, the values of `CCOC(=O)N1CCN(C(=O)[C@H](CCC(=O)OCC(C)C)NC(=O)c2cc(OCC(=O)N3CCC[C@H]3C(=O)NC3CCC3)n(-c3ccccc3)n2)CC1` [Example 135, 4-[(S)-2-({5-[2-((S)-2-Cyclobutylcarbamoyl-pyrrolidin-1-yl)-2-oxo-ethoxy]-1-phenyl-1H-pyrazole-3-carbonyl}-amino)-4-isobutoxycarbonyl-butyryl]-piperazine-1-carboxylic acid ethyl ester] are 60 nM and 660 nM.
Regarding `CCOC(=O)N1CCN(C(=O)[C@H](CCC(=O)O)NC(=O)c2cc(OCC(=O)N3CCC[C@H]3C(=O)NCC3CC3)n(-c3ccc(F)c(F)c3)n2)CC1` [Example 84, 4-((S)-4-Carboxy-2-{[5-[2-((S)-2-cyclopropylmethylcarbamoyl-pyrrolidin-1-yl)-2-oxo-ethoxy]-1-(3,4-difluoro-phenyl)-1H-pyrazole-3-carbonyl]-amino}-butyryl)-piperazine-1-carboxylic acid ethyl ester], the IC50 was found to be 92 nM at human P2Y12 receptor and 550 nM in assay [1] (Homo sapiens, Platelet, 20 min).
In the same order, the values of `CCOC(=O)N1CCN(C(=O)[C@H](CCC(=O)OC2CCC2)NC(=O)c2cc(OCC(=O)N3CCC[C@H]3C(=O)NC3CCC3)n(-c3ccccc3)n2)CC1` [Example 131, 4-[(S)-2-({5-[2-((S)-2-Cyclobutylcarbamoyl-pyrrolidin-1-yl)-2-oxo-ethoxy]-1-phenyl-1H-pyrazole-3-carbonyl}-amino)-4-cyclobutoxycarbonyl-butyryl]-piperazine-1-carboxylic acid ethyl ester] are 54 nM and 740 nM.
For `CCOC(=O)N1CCN(C(=O)[C@H](CCC(=O)O)NC(=O)c2cc(OCC(=O)N3CC[C@H]3C(=O)NC3CCC3)n(-c3ccccc3)n2)CC1` [Example 41, 4-[(S)-4-Carboxy-2-({5-[2-((S)-2-cyclobutylcarbamoyl-azetidin-1-yl)-2-oxo-ethoxy]-1-phenyl-1H-pyrazole-3-carbonyl}-amino)-butyryl]-piperazine-1-carboxylic acid ethyl ester], in that order: 109 nM and 80 nM.
